This is an account of results in patent publication US20140142180A1, “METHODS OF TREATING TUMORS HAVING ELEVATED MCT1 EXPRESSION” (Whitehead Institute for Biomedical Research, priority 2012, published 2014).

Assay [1] concerns MDA-MB-231 cells stably expressing MCT1. Description: Subcutaneous MDA-MB-231 xenografts in nude mice. Type of assay: in vivo. To be noted: tumors with forced MCT1 expression vs untreated or GFP-expressing, 8 mg/kg, 3 weeks. As to the method: All animal studies and procedures were approved by the MIT Institutional Animal Care and Use Committee. 6-10 week old nude mice (Taconic) were used for generating all xenografts. In subcutaneous xenografts, mice were injected at two sites in the dorsal region, under isofluorane anesthesia with 100 μl/injection of tumor cell suspension in RPMI with 20% matrigel. 2.5 million MDA-MB-231 cells were injected. After 2 weeks, tumors were measured and mice were separated for PBS and 3-BrPA treatment (8 mg/kg). After 3 weeks, tumors were harvested, their dimensions were measured with a caliper and tumor volume estimated according to the formula: (0.5*W*L*L). Tumors were fixed in formalin for later processing.
To test if MCT1 expression can affect the sensitivity of established tumors to 3-BrPA, parental MDA-MB-231 cells, which express low levels of MCT1 (Supplemental FIG. 4), were injected subcutaneously into the left flanks of Nude mice, while MDA-MB-231 cells stably expressing MCT1 were injected into the contralateral flanks of the same animals. We allowed palpable subcutaneous tumors to form for 2 weeks before beginning 3-BrPA administration.

The test system of assay [2] is MDA-MB-231 cells. Description: Cell survival assay, MDA-MB-231. Type of assay: cell-based, human. How it is done:
(§1) Cell lines (5,000-20,000) were seeded in 96-well plates and treated with indicated amounts of 3-BrPA. After 3 days of treatment, CellTiter-Glo (Promega) and/or CyQuant (Invitrogen) were used to measure survival percentage for each concentration compared to untreated cells. FACS analysis with Annexin V and 7AAD staining was performed according to manufacturer's manual (BD Pharmingen).
(§2) 15 cell lines (BT-474, BT-549, CAK1-1, CAL-51, HCC-70, HS578T, JURKAT, MDA-MB-157, MDA-MB-231, MDA-MB-453, MDA-MB-468, PC-3, SK-BR-3, T47D, ZR-75-1) were treated with 3-BrPA (0-300 μM). After 3 days, cell viability was quantified via CellTiter-Glo assay and an IC50 from the resulting dose-response curve was interpolated using a nonlinear regression model. Transcriptome-wide normalized mRNA levels from gene expression profiling experiments performed on the Affymetrix Human Genome U133 Plus 2.0 chip were obtained from the CCLE for all 15 cell lines. The mRNA expression pattern across all 15 samples for each of the genes was then correlated with the IC50 values. Similar correlation analysis was performed using OCR/ECAR values for each cell line.

For assay [3], the system named is T47D cells. The assay can be described thus: Cell survival assay, T47D. Conditions: low MCT1 level. Type of assay: cell-based, human. How it is done:
as §1, §2

Assay [4] has as its system MT-3 cells. Description: Cell survival assay, MT-3. Type of assay: cell-based, human. To be noted: MT-3, increased MCT1 level. How it is done: as §1
The test system of assay [5] is AMPK and ACC phosphorylation. Description: Immunoblot of AMPK and ACC phosphorylation, wild type KBM7 cells. Type of assay: cell-based, human. To be noted: 50 μM 3-BrPA.
For assay [6], the system named is parental KBM7 cells. Description: Extracellular flux analysis (ECAR), parental KBM7 cells. To be noted: 50 μM 3-BrPA. Type of assay: cell-based, human. How it is done:
The bioenergetic profiles of KBM7 and MDA-MB-231 cells in response to 3-BrPA were determined using a Seahorse Bioscience XF24 Extracellular Flux Analyzer (Seahorse Bioscience). For the indicated experiments, 250,000 KBM7 or 40,000 MDA-MB-231 cells seeded in Seahorse tissue culture plates using unbuffered RPMI (10 mM Glucose). KBM7 cells were attached to the plates using CellTak (Clontech) one hour prior to the start of the experiment. For AUC (area under the curve) OCR and ECAR measurements, three consecutive readings were performed for each cell line. For experiments where 3-BrPA is used, after 3 consecutive readings, 50 μM 3-BrPA was injected through port A and ECAR and OCAR levels were measured. Lactate production was measured as described previously^50. For ATP assays, 20,000 cells were seeded and treated for 30 min with indicated amounts of 3-BrPA and ATP levels were determined using a luciferase-based assay (Promega). For metabolite measurements, 10 million wild type and MCT1 null KBM7 cells were cultured for 1 hour in presence of 50 μM 3-BrPA before metabolite extraction. Then, cells were rapidly washed three times with cold PBS, and then metabolites were extracted by addition of 80% ice-cold methanol followed after incubation on dry ice for 15 min. Endogenous metabolite profiles were obtained using LC-MS as described^51. Metabolite levels (n=3) were normalized to cell number.

Assay [7] deals with MDA-MB-453 cells. The assay can be described thus: Cell survival assay, MDA-MB-453. Type of assay: cell-based, human. Conditions: MDA-MB-453, low MCT1 level. How it is done:
as §1, §2

Assay [8] deals with MDA-MB-468 cells. Description: Cell survival assay, MDA-MB-468. Type of assay: cell-based, human. How it is done:
as §1, §2

The structures appear in SMILES notation.

As to `O=C(O)C(=O)CBr` [3-BrPA, 3-bromopyruvic acid], in assay [1], the “tumor size after 3-BrPA treatment” value was “significantly smaller”. Besides, the “sensitivity to 3-BrPA” value in assay [2] (MDA-MB-231, low MCT1 level) is on record as “resistant”; in assay [3] it was “resistant”; in assay [4], “sensitive”; in assay [7], “resistant”; in assay [8] (MDA-MB-468, increased MCT1 level) it was “sensitive”. In addition, the “sensitivity to 3-BrPA with stable expression of MCT1” value in assay [2] (MDA-MB-231 stably expressing MCT1 cDNA) is on record as “sufficient to sensitize”. Besides, the “AMPK and ACC phosphorylation, markers of energy stress” value in assay [5] is “robustly increasing”. The “extracellular acidification rate (ECAR), a proxy for lactate production” value in assay [6] is listed as “substantial decrease”. Further, the “sensitivity to 3-BrPA with suppression of GAPDH expression by RNAi” value in assay [8] (MDA-MB-468 expressing shRNA targeted to GAPDH vs GFP control) is given as “markedly increased the sensitivity”.
